In series [1] the target is T1, KRAS G12C (Homo sapiens, UniProt P01116, G12C). Kind of series: KRAS G12C nucleotide exchange assay (SOS1-mediated, mant-GDP fluorescence). In kind it is biochemical. More on the design: KRas(1-169) G12C protein. As to conditions: 15 min pre-incubation.
Target sequence in this assay (P01116 1-169 isoform P01116-2 G12C): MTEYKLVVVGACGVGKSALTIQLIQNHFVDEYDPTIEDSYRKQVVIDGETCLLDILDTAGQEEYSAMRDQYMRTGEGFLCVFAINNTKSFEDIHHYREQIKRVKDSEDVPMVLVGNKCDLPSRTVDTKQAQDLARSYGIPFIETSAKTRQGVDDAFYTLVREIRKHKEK
Another series relates to A549. Kind of series: Tumor cell anti-proliferation assay (CTG assay), A549. In kind it is cell-based. To be noted: A549, 3-days incubation. Here is the method: (§1) Assay 3: Tumor Cell Anti-Proliferation Assay (CTG Assay)
(§2) Tested tumor cell lines (MIA PaCa-2, NCI-H358, and A549) were seeded to the 96-well plate for overnight, then cells were treated with the test compound at 9 serially diluted concentrations in triplicate. After 3-days incubation with the test compound, the CTG assay was performed to evaluate the IC50. The 3 cell lines were tested in the same manner. Cisplatin were used as the positive control.
(§3) Day −1: Cell Plating for Cell Lines
(§4) 1. Adjust the cell concentration to the appropriated number with the medium, and for each well of a 96-well plate, add 90 μl cell suspensions (Cell concentration will be adjusted according to the data base or density optimization assay). 2. Incubate the plates for overnight in humidified incubator at […] with 5% CO2.
(§5) Day 0: T0 Plate Reading and Compound Treatment
(§6) 3. Add 10 μL culture medium to each well of plate A for T0 reading.
(§7) 4. Equilibrate the plate and its content at RT for approximately 30 min.
(§8) 5. Add 50 μL CellTiter-Glo® Reagent to each well for T0 reading.
(§9) 6. Mix contents for 2 minutes on an orbital shaker to facilitate cell lysis.
(§10) 7. Allow the plate to incubate at room temperature for 10 minutes to stabilize the luminescent signal. Note: Uneven luminescent signal within standard plates can be caused by temperature gradients, uneven seeding of cells or edge effects in multiwall plates.
(§11) 8. Place a black BackSeal sticker to the bottom of each plate.
(§12) 9. Record luminescence using an Envision Multi Label Reader.
(§13) 10. Dilute the test compound and the positive control (Cisplatin). Add 10 μL of 10× test compound working solutions into the corresponding wells. Incubate the test plates in the humidified incubator at 37° C. with 5% Co2.
(§14) Day 3: Plate Reading for 3-Day Assay
(§15) 11. Monitor under the microscope to make sure that the cells in control wells are healthy.
(§16) 12. After three days incubation, add 50 μL CellTiter-Glo® Reagent to each well.
(§17) 13. Mix contents for 2 minutes on an orbital shaker to facilitate cell lysis.
(§18) 14. Allow the plate to incubate at room temperature for 10 minutes to stabilize the luminescent signal.
(§19) 15. Note: Uneven luminescent signal within standard plates can be caused by temperature gradients, uneven seeding of cells or edge effects in multiwall plates.
(§20) 16. Place a black BackSeal sticker to the bottom of each plate.
(§21) 17. Record luminescence using an Envision Multi Label Reader.
(§22) In order to calculate IC50, a dose-response curve was fitted using nonlinear regression model with a sigmoidal dose response. The formula of the surviving rate is shown below, and the IC50 was automatically produced by GraphPad Prism 5.0.
(§23) The surviving rate […]=(LumTest compound−LumMedium control)/(LumNone treated-LumMedium control)×100%.
(§24) LumNone treated-LumMedium control is set as 100% o and LumMedium control is set as […]. T0 value will be presented as percentage of LumNone treated.

In another series the test system is MIA PaCa-2. Kind of series: Tumor cell anti-proliferation assay (CTG assay), MIA PaCa-2. In kind it is cell-based. To be noted: MIA PaCa-2, 3-days incubation, CTG, read-out: IC50 MIA PaCa-2. The procedure: as §1, §2, §3, §4, §5, §6, §7, §8, §9, §10, §11, §12, §13, §14, §15, §16, §17, §18, §19, §20, §21, §22, §23, §24
A further series relates to NCI-H358. Kind of series: Tumor cell anti-proliferation assay (CTG assay), NCI-H358. The series is classed as cell-based. As to conditions: NCI-H358, 3-days incubation, CTG, read-out: IC50 NCI-H358. The procedure: as §1, §2, §3, §4, §5, §6, §7, §8, §9, §10, §11, §12, §13, §14, §15, §16, §17, §18, §19, §20, §21, §22, §23, §24
A short description of series [2]: Pharmacokinetics study in plasma of ICR mice, intravenous or oral administration. The series is classed as in vivo. To be noted: male ICR mice. The procedure:
The purpose of this study is to determine the pharmacokinetics parameters in plasma of compounds in ICR mice following intravenous or oral administration.
The formulations were based on sponsor's recommendation and will be prepared by the Testing Facility.
Species and Strain: ICR Mice (Male)
Source: Sino-British SIPPR Lab Animal Ltd, Shanghai
Number of Animals: Ordered: 8; Needed: 6
The test article was be administered via a single IV or PO dosing.
IV group: Post-dose at 5 min, 15 min, 30 min, 1 h, 2 h, 4 h, 8 h and 24 h.
PO group: Post-dose at 15 min, 30 min, 1 h, 2 h, 4 h, 6 h, 8 h and 24 h.
30˜40 μL/sample. Samples were be placed in tubes containing heparin sodium and stored on ice until centrifuged.
The PK blood samples were centrifuged at approximately 6800G for 6 minutes at 2-8° C. and the resulting plasma was transferred to appropriately labeled tubes within 2 hour of blood collection/centrifugation and stored frozen at approximately −70° C.
Method development and biological samples analysis for the test articles (Sodium heparin anticoagulant) were be performed by Testing Facility by means of LC-MS/MS. The analytical results were be confirmed using quality control samples for intra-assay variation. The accuracy of >66.7% of the quality control samples were be between 80-120% of the known value(s).
Pharmacokinetics Analysis
Standard set of parameters including Area Under the Curve (AUC(0-t) and AUC(0-∞)), elimination half-live (T1/2), maximum plasma concentration (Cmax) and time to reach maximum plasma concentration (Tmax) and other parameters were be calculated using Phoenix WinNonlin 7.0 (Pharsight, USA) by the Study Director.

Series [3] concerns the target T1, KRAS G12C. Kind of series: KRAS GDP FI assay. As to conditions: kinetic reading Ex580/Em620 for 120 min. The series is classed as biochemical. The source says: Assay 2: KRAS GDP FI Assay
1. Prepare compound dilution plate.
2. Transfer Inhibitor/DMSO to assay plate by Echo.
3. Prepare 1× assay buffer.
4. Prepare KRAS G12C mix & SOS1 mix & GTP mix & detection reagent mix.
5. Add KRAS G12C mix, SOS1 mix, GTP mix.
6. Add detection reagent mix to assay plate.
Target sequence in this assay (P01116 1-188 isoform P01116-2 G12C): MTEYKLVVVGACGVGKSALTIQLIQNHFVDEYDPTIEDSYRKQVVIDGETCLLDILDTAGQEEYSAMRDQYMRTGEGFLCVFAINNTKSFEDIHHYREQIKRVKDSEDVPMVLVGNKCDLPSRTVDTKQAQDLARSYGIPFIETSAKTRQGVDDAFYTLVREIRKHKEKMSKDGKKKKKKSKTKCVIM

Where [4] appears, read: mouse, 1 mg/kg, IV, 1 mpk, plasma.
The mark [5] stands for this setting: mouse, 10 mg/kg, PO, 10 mpk, fasted, plasma.

Where two headings read alike, the source gives them in different places.

Broadly, the IC50 is the point on the concentration scale where inhibition reaches its midpoint. For the molecule `C=CC(=O)N1CCN(c2nc(OC[C@@H]3CCCN3C)nc3c(=O)n(-c4cccc5cccc(Cl)c45)c(C)nc23)C[C@@H]1CC#N` [Compound 4, 2-((S)-1-acryloyl-4-(7-(8-chloronaphthalen-1-yl)-6-methyl-2-(((S)-1-methylpyrrolidin-2-yl)methoxy)-8-oxo-7,8-dihydropyrimido[5,4-d]pyrimidin-4-yl)piperazin-2-yl)acetonitrile], the concentration for half-maximal inhibition (IC50) against KRAS G12C [1] was 560 nM; with A549 (Homo sapiens, 72 h), greater than 5000 nM; in the series with MIA PaCa-2 (Homo sapiens, MIA PaCa-2, 72 h), 504 nM; in the series with NCI-H358 (Homo sapiens, NCI-H358, 72 h) it was 476 nM.
For orientation: AUC means the area under the concentration-time curve, a measure of exposure. A lower AUC goes with low exposure. The term half-life denotes how long it takes for the measured level to halve. A lower half-life goes with fast loss. One may read the Cmax as the peak of the concentration-time curve. As usually defined, the Tmax is the time at which the peak concentration occurs. As for `C=CC(=O)N1C[C@H](C)N(c2nc(OC[C@@H]3CCCN3C)nc3c(=O)n(-c4cccc5cccc(Cl)c45)c(C(F)(F)F)nc23)[C@@H](C)C1` (single isomer, unassigned) [Example 29-b], the IC50 with A549 (Homo sapiens, 72 h) is greater than 10000 nM. Besides, in the series with MIA PaCa-2 (Homo sapiens, MIA PaCa-2, 72 h), the IC50 turned out to be 906 nM. Besides, in the series on NCI-H358, the IC50 was found to be 28.6 nM. Also, the F in series [2] (PO 10 mpk vs IV 1 mpk) was determined as 26.74%. In series [2] (setting [4]), this molecule showed an area under the curve (AUC) of 0.993 µM·h, a C0 of 659 nM, a Vd of 2.97 L/kg and a clearance of 25.7 mL/min/kg. The half-life in series [2] (setting [4]) is 1.59 h. In addition, in series [2] (setting [5]), the AUC stood at 2.58 µM·h, the concentration peaked (Cmax) at 729 nM, the time to peak (Tmax) was found to be 0.42 h and the half-life was 2.39 h. Further, the midpoint of inhibition at KRAS G12C [3], the IC50, lay at 127 nM.
Turning to `C=CC(=O)N1C[C@H](C)N(c2nc(OC[C@@H]3CCCN3C)nc3c(=O)n(-c4cc(OC)cc5ccccc45)c(C(F)(F)F)nc23)[C@@H](C)C1` (single isomer, unassigned) [Example 35-a], the IC50 in the series with A549 (Homo sapiens, 72 h) was greater than 10000 nM; in the series on MIA PaCa-2 it was 2650 nM; in the series with NCI-H358, 1180 nM.
`C=CC(=O)N1C[C@H](C)N(c2nc(OC[C@@H]3CCCN3C)nc3c(=O)n(-c4cccc5cccc(F)c45)c(C(F)(F)F)nc23)[C@@H](C)C1` (single isomer, unassigned) [Example 34-a]: the IC50 was greater than 10000 nM with A549 (Homo sapiens, 72 h); 1230 nM in the series with MIA PaCa-2 (Homo sapiens, MIA PaCa-2, 72 h); 202 nM in the series on NCI-H358.
`C=CC(=O)N1C[C@H](C)N(c2nc(OC[C@@H]3CCCN3C)nc3c(=O)n(-c4cc(OC)cc5ccccc45)c(C(F)(F)F)nc23)[C@@H](C)C1` (single isomer, unassigned) [Example 35-b]: the IC50 was greater than 10000 nM with A549, 916 nM with MIA PaCa-2 and 206 nM in the series on NCI-H358.
As for `C=CC(=O)N1CCN(c2nc(OC[C@@H]3CCCN3C)nc3c(=O)n(-c4cccc5cccc(Cl)c45)c(=O)[nH]c23)C[C@@H]1CC#N` [Compound 19, 2-((S)-1-acryloyl-4-(7-(8-chloronaphthalen-1-yl)-2-(((S)-1-methylpyrrolidin-2-yl)methoxy)-6,8-dioxo-5,6,7,8-tetrahydropyrimido[5,4-d]pyrimidin-4-yl)piperazin-2-yl)acetonitrile], the concentration for half-maximal inhibition (IC50) against KRAS G12C [1] is 370 nM; in the series on A549 (Homo sapiens, 72 h), greater than 5000 nM; in the series with MIA PaCa-2 (Homo sapiens, MIA PaCa-2, 72 h), greater than 5000 nM; in the series with NCI-H358 (Homo sapiens, NCI-H358, 72 h) it was greater than 5000 nM.
In the case of `Cc1nc2c(N3CCN[C@@H](CC#N)C3)nc(OC[C@@H]3CCCN3C)nc2c(=O)n1-c1cccc2ccccc12` [Compound 2, 2-((S)-4-(6-methyl-2-(((S)-1-methylpyrrolidin-2-yl)methoxy)-7-(naphthalen-1-yl)-8-oxo-7,8-dihydropyrimido[5,4-d]pyrimidin-4-yl)piperazin-2-yl)acetonitrile], the 50% inhibitory concentration (IC50) against KRAS G12C [1] was 690 nM; in the series on A549 (Homo sapiens, 72 h) it was greater than 5000 nM; in the series on MIA PaCa-2 (Homo sapiens, MIA PaCa-2, 72 h), 642 nM; with NCI-H358 (Homo sapiens, NCI-H358, 72 h), 1340 nM.
Take `N.N.[Cl][Pt][Cl]` [Cisplatin, reference compound]: the IC50 with A549 was found to be 31100 nM; with MIA PaCa-2, 14300 nM; with NCI-H358, 25000 nM.

The record behind these values is patent US20230212170A1, “INHIBITORS OF KRAS G12C PROTEIN AND USES THEREOF” (SHANGHAI ANTENGENE CORPORATION LIMITED, priority 2020, published 2023).
